Laboratory results published in patent publication US9169254B2, “Spiroimidazolone derivative” (Chugai Seiyaku Kabushiki Kaisha, priority 2009, dated 2015).

Target: T1, human PTH1 receptor (Homo sapiens, UniProt Q03431)
T1 sequence (Q03431 27-593): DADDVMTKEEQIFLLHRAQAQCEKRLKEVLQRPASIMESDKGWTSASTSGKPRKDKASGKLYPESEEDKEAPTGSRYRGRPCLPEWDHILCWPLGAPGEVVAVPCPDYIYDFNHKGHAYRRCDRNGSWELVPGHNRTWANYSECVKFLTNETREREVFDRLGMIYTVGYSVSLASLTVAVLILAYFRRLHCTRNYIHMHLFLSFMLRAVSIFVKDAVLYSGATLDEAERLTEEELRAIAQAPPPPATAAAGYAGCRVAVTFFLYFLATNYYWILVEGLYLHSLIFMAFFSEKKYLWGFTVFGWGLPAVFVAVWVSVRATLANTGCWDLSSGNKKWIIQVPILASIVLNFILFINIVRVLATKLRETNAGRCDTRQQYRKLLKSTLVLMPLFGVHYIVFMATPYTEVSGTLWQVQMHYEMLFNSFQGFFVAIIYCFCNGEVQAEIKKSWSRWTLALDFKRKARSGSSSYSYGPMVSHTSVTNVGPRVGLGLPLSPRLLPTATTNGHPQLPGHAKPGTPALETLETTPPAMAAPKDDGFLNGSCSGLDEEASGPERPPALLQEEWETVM
Assay: In vitro cAMP signal activity in HKRK-B7 cells (LLC-PK1 cells overexpressing the human PTH1 receptor)
Assay type: cell-based
Conditions: HKRK-B7 cells; compound at 1×10^−3 M; cAMP produced as percentage of that produced by hPTH(1-34) at 100 nM

Structure (SMILES): O=C(N1CCCCC1)N1CCCC(C2=NC3(CCN(S(=O)(=O)c4cccc(Cl)c4)CC3)C(=O)N2)C1 (stereo not shown) [Compound 456, 8-(3-Chloro-benzenesulfonyl)-2-[1-(piperidine-1-carbonyl)-piperidin-3-yl]-1,3,8-triaza-spiro[4.5]dec-1-en-4-one]
- cAMP production activity (%): 28%

Structure (SMILES): Cc1ccccc1/C=C/S(=O)(=O)N1CCC2(CC1)N=C(C1CCCCC1)NC2=O [Compound 186, 2-cyclohexyl-8-((E)-2-o-tolyl-ethenesulfonyl)-1,3,8-triaza-spiro[4.5]dec-1-en-4-one]
- cAMP production activity (%): 51%

Structure (SMILES): CCCS(=O)(=O)CCCCCC1=NC2(CCN(S(=O)(=O)/C=C/c3c(C)cc(N(C)C(N)=O)cc3C)CC2)C(=O)N1 [Compound 1318, 1-[3,5-Dimethyl-4-((E)-2-{4-oxo-2-[5-(propane-1-sulfonyl)-pentyl]-1,3,8-triaza-spiro[4.5]dec-1-ene-8-sulfonyl}-vinyl)-phenyl]-1-methyl-urea]
- cAMP production activity (%): 19%

Structure (SMILES): Cc1cc(C(=O)N(C)C)ccc1CCS(=O)(=O)N1CCC2(CC1)N=C(c1cccc(F)c1C)NC2=O [Compound 114, 4-{2-[2-(3-fluoro-2-methyl-phenyl)-4-oxo-1,3,8-triaza-spiro[4.5]dec-1-ene-8-sulfonyl]-ethyl}-3,N,N-trimethyl-benzamide]
- cAMP production activity (%): 105%

Structure (SMILES): Cc1cc(N(C)C(N)=O)cc(C)c1/C=C/S(=O)(=O)N1CCC2(CC1)N=C(CCCCCCCCCCCC(N)=O)NC2=O [Compound 1173, 12-(8-{(E)-2-[2,6-dimethyl-4-(1-methyl-ureido)-phenyl]-ethenesulfonyl}-4-oxo-1,3,8-triaza-spiro[4.5]dec-1-en-2-yl)-dodecanoic acid amide]
- cAMP production activity (%): 85%

Structure (SMILES): Cc1cc(C2=NC3(CCN(S(=O)(=O)/C=C/c4c(C)cc(C(=O)N5CCC(C)(O)CC5)cc4C)CC3)C(=O)N2)ccc1C(F)(F)F [Compound 1193, 8-{(E)-2-[4-(4-hydroxy-4-methyl-piperidine-1-carbonyl)-2,6-dimethyl-phenyl]-ethenesulfonyl}-2-(3-methyl-4-trifluoromethyl-phenyl)-1,3,8-triaza-spiro[4.5]dec-1-en-4-one]
- cAMP production activity (%): 86%

Structure (SMILES): Cc1cc(NCC(=O)N2CCN(C)CC2)ccc1/C=C/S(=O)(=O)N1CCC2(CC1)N=C(c1cccc(OC(F)(F)F)c1)NC2=O [Compound 528, 8-((E)-2-{2-methyl-4-[2-(4-methyl-piperazin-1-yl)-2-oxo-ethylamino]-phenyl}-ethenesulfonyl)-2-(3-trifluoromethoxy-phenyl)-1,3,8-triaza-spiro[4.5]dec-1-en-4-one]
- cAMP production activity (%): 55%

Structure (SMILES): Cc1oc(-c2ccccc2)nc1CC(=O)N1CCCC(C2=NC3(CCN(S(=O)(=O)CCc4cccc5ccccc45)CC3)C(=O)N2)C1 (stereo not shown) [Compound 434, 2-{1-[2-(5-methyl-2-phenyl-oxazol-4-yl)-acetyl]-piperidin-3-yl}-8-(2-naphthalen-1-yl-ethanesulfonyl)-1,3,8-triaza-spiro[4.5]dec-1-en-4-one]
- cAMP production activity (%): 25%

Structure (SMILES): Cc1cc(OCCC(O)CO)ccc1-c1ccc(S(=O)(=O)N2CCC3(CC2)N=C(c2ccc(F)c(C(F)(F)F)c2)NC3=O)s1 (stereo not shown) [Compound 341, 8-{5-[4-(3,4-Dihydroxy-butoxy)-2-methyl-phenyl]-thiophene-2-sulfonyl}-2-(4-fluoro-3-trifluoromethyl-phenyl)-1,3,8-triaza-spiro[4.5]dec-1-en-4-one]
- cAMP production activity (%): 62%

Structure (SMILES): O=C1NC(c2ccc(Cl)cc2Cl)=NC12CCN(S(=O)(=O)c1ccccc1C(F)(F)F)CC2 [Compound 45, 2-(2,4-dichloro-phenyl)-8-(2-trifluoromethyl-benzenesulfonyl)-1,3,8-triaza-spiro[4.5]dec-1-en-4-one]
- cAMP production activity (%): 22%

Structure (SMILES): Cc1cc(C(=O)N(C)CCN(C)C)cc(C)c1/C=C/S(=O)(=O)N1CCC2(CC1)N=C(c1cccc(C(F)(F)F)c1)NC2=O [Compound 390, N-(2-dimethylamino-ethyl)-3,5,N-trimethyl-4-{(E)-2-[4-oxo-2-(3-trifluoromethyl-phenyl)-1,3,8-triaza-spiro[4.5]dec-1-ene-8-sulfonyl]-vinyl}-benzamide]
- cAMP production activity (%): 22%

Structure (SMILES): Cc1cc(C(=O)N2CCC(CO)CC2)cc(C)c1/C=C/S(=O)(=O)N1CCC2(CC1)N=C(c1cccc(OC(F)(F)F)c1)NC2=O [Compound 960, 8-{(E)-2-[4-(4-hydroxymethyl-piperidine-1-carbonyl)-2,6-dimethyl-phenyl]-ethenesulfonyl}-2-(3-trifluoromethoxy-phenyl)-1,3,8-triaza-spiro[4.5]dec-1-en-4-one]
- cAMP production activity (%): 84%

Structure (SMILES): COC(=O)c1ccccc1S(=O)(=O)N1CCC2(CC1)N=C(C1CCCCC1)NC2=O [Compound 51, 2-(2-Cyclohexyl-4-oxo-1,3,8-triaza-spiro[4.5]dec-1-ene-8-sulfonyl)-benzoic acid methyl ester]
- cAMP production activity (%): 38%

Structure (SMILES): CCCOCCCCCC1=NC2(CCN(S(=O)(=O)CCc3c(C)cc(N(C)C(N)=O)cc3C)CC2)C(=O)N1 [Compound 1352, 1-(3,5-dimethyl-4-{2-[4-oxo-2-(5-propoxy-pentyl)-1,3,8-triaza-spiro[4.5]dec-1-ene-8-sulfonyl]-ethyl}-phenyl)-1-methyl-urea]
- cAMP production activity (%): 78%

Structure (SMILES): CC1=NC2(CCN(S(=O)(=O)c3cccc(Cl)c3)CC2)C(=O)N1 [Compound 8, 8-(3-chloro-benzenesulfonyl)-2-methyl-1,3,8-triaza-spiro[4.5]dec-1-en-4-one]
- cAMP production activity (%): 2.6%

Structure (SMILES): Cc1cc(N(C)C(N)=O)cc(C)c1CCS(=O)(=O)N1CC2(C1)N=C(c1cccc(OC(F)(F)F)c1)NC2=O [Compound 941, 1-(3,5-dimethyl-4-{2-[8-oxo-6-(3-trifluoromethoxy-phenyl)-2,5,7-triaza-spiro[3.4]oct-5-ene-2-sulfonyl]-ethyl}-phenyl)-1-methyl-urea]
- cAMP production activity (%): 21%

Structure (SMILES): Cc1cc(N(C)C(=O)C(F)(F)F)cc(C)c1CCS(=O)(=O)N1CCC2(CC1)N=C(C1CC(C)(C)CC(C)(C)C1)NC2=O [Compound 933, N-(3,5-dimethyl-4-{2-[4-oxo-2-(3,3,5,5-tetramethyl-cyclohexyl)-1,3,8-triaza-spiro[4.5]dec-1-ene-8-sulfonyl]-ethyl}-phenyl)-2,2,2-trifluoro-N-methyl-acetamide]
- cAMP production activity (%): 60%

Structure (SMILES): Cc1cc(C(=O)N2CCC(O)CC2)cc(C)c1/C=C/S(=O)(=O)N1CCC2(CC1)N=C(c1ccc(F)c(C(F)(F)F)c1)NC2=O [Compound 535, 2-(4-fluoro-3-trifluoromethyl-phenyl)-8-{(E)-2-[4-(4-hydroxy-piperidine-1-carbonyl)-2,6-dimethyl-phenyl]-ethenesulfonyl}-1,3,8-triaza-spiro[4.5]dec-1-en-4-one]
- cAMP production activity (%): 83%

Structure (SMILES): Cc1cc(N2C(=O)CNC2=O)cc(C)c1CCS(=O)(=O)N1CCC2(CC1)N=C(c1cccc(OC(F)(F)F)c1)NC2=O [Compound 799, 3-(3,5-dimethyl-4-{2-[4-oxo-2-(3-trifluoromethoxy-phenyl)-1,3,8-triaza-spiro[4.5]dec-1-ene-8-sulfonyl]-ethyl}-phenyl)-imidazolidine-2,4-dione]
- cAMP production activity (%): 7.1%

Structure (SMILES): Cc1ccc(O)cc1/C=C/S(=O)(=O)N1CCC2(CC1)N=C(c1cccc(OC(F)(F)F)c1)NC2=O [Compound 227, 8-[(E)-2-(5-hydroxy-2-methyl-phenyl)-ethenesulfonyl]-2-(3-trifluoromethoxy-phenyl)-1,3,8-triaza-spiro[4.5]dec-1-en-4-one]
- cAMP production activity (%): 87%

Structure (SMILES): Cc1cc(C(=O)N(C)C)ccc1CCS(=O)(=O)N1CCC2(CC1)N=C(C1CCC(F)(F)CC1)NC2=O [Compound 890, 4-{2-[2-(4,4-Difluoro-cyclohexyl)-4-oxo-1,3,8-triaza-spiro[4.5]dec-1-ene-8-sulfonyl]-ethyl}-3,N,N-trimethyl-benzamide]
- cAMP production activity (%): 61%

Structure (SMILES): Cc1cc(N(C2CCOCC2)S(C)(=O)=O)cc(C)c1/C=C/S(=O)(=O)N1CCC2(CC1)N=C(c1cccc(OC(F)(F)F)c1)NC2=O [Compound 534, N-(3,5-dimethyl-4-{(E)-2-[4-oxo-2-(3-trifluoromethoxy-phenyl)-1,3,8-triaza-spiro[4.5]dec-1-ene-8-sulfonyl]-vinyl}-phenyl)-N-(tetrahydro-pyran-4-yl)-methane sulfonamide]
- cAMP production activity (%): 39%

Structure (SMILES): CC(=O)Nc1ccc(CCS(=O)(=O)N2CCC3(CC2)N=C([C@H]2CC[C@@H](C/C=C/F)CC2)NC3=O)c(C)c1 [Compound 1070, N-[4-(2-{2-[4-((E)-3-fluoro-allyl)-cyclohexyl]-4-oxo-1,3,8-triaza-spiro[4.5]dec-1-ene-8-sulfonyl}-ethyl)-3-methyl-phenyl]-acetamide]
- cAMP production activity (%): 69%

Structure (SMILES): Cc1cc2ccc1CCS(=O)(=O)N1CCC3(CC1)N=C(NC3=O)c1cc(cc(C(F)(F)F)c1)OCCCCCOCCNC2=O [Compound 1427]
- cAMP production activity (%): 72%

Structure (SMILES): Cc1cc(C(=O)N(C)C)ccc1CCS(=O)(=O)N1CCC2(CC1)N=C(C1CCCC1)NC2=O [Compound 77, 4-[2-(2-cyclopentyl-4-oxo-1,3,8-triaza-spiro[4.5]dec-1-ene-8-sulfonyl)-ethyl]-3,N,N-trimethyl-benzamide]
- cAMP production activity (%): 69%
